Test: active ingredient delivery in PhEur phosphate buffer of pH 6.8 in a USP dissolution tester
Assay type: physicochemical
Details: versus pellets with microcrystalline cellulose (Example 5), EUDRAGIT RS coating, no matrix

| effect of the modulating substance in the core on active ingredient delivery | Compound |
| --- | --- |
| accelerating effect | O=C(O)CC(O)(CC(=O)O)C(=O)O [citric acid] |
| accelerating effect | O=C([O-])CCC(=O)[O-].[Na+].[Na+] [sodium succinate] |
| accelerating effect | CC(=O)[O-].[Na+] [sodium acetate] |

| Compound | effect of the modulating substance in the core on active ingredient delivery |
| --- | --- |
| [Cl-].[Na+] [sodium chloride] | reducing effect |
